The text below walks through data of patent US20260159499A1, “COMPOUND AS FAK INHIBITOR AND USE THEREOF” (WIGEN BIOMEDICINE TECHNOLOGY (SHANGHAI) CO., LTD., priority 2021, published 2026).

What is called IC50 is the concentration at which inhibition is half-maximal.

One assay addresses FAK recombinant protein (Homo sapiens, UniProt Q05397). Briefly: Inhibitory activity against FAK enzyme. Format: biochemical. Particulars: TK substrate, ATP. The method, then: The compound serially diluted with DMSO and a FAK recombinant protein were mixed, and the mixture was left to stand at room temperature for 10 min. A biotin-labeled TK substrate (TK) and ATP were then added. […] After the mixture was incubated at room temperature for 1 h, the fluorescence intensity at 615 nm and 665 nm was measured. The ratio of the fluorescence intensity at 665 nm and 615 nm was calculated. The inhibition percentages and IC50 of the compounds were calculated compared to the DMSO control group.

Assay [1] has as its system PC3 cells. Briefly: PC3 cell proliferation, 2D activity detection. Format: cell-based, human. Particulars: Homo sapiens, PC-3; PC3, 2D, 72 h, class symbol; read-out: 2D IC50 against PC3 cells. The method, then:
2D activity detection: 1200 PC3 cells were seeded in a 96-well plate. After overnight adherence culture, the compound serially diluted was added. 72 h after addition, Cell Titer-Lumi (Beyotime C0068XL) was added to measure the ATP content in the cells. The growth of the cells was evaluated, and IC50 of the compounds against cell growth was calculated.

Assay [2] relates to PC3 cells. Description: PC3 cell proliferation, 3D activity detection. Format: cell-based, human. The settings on record: Homo sapiens, PC-3, 336 h; PC3, 3D culture, 14 days, class symbol; read-out: 3D IC50 against PC3 cells. The method, then:
3D activity detection: PC3 cells were seeded in a 96-well plate at 1200 cells/well, and 3D culture was performed. 14 days after the compound serially diluted was added, the growth of the cells was determined. The inhibition percentage and IC50 of the compound were calculated compared to the DMSO control group.

FAK recombinant protein, sequence (Q05397 whole entry, species assumed): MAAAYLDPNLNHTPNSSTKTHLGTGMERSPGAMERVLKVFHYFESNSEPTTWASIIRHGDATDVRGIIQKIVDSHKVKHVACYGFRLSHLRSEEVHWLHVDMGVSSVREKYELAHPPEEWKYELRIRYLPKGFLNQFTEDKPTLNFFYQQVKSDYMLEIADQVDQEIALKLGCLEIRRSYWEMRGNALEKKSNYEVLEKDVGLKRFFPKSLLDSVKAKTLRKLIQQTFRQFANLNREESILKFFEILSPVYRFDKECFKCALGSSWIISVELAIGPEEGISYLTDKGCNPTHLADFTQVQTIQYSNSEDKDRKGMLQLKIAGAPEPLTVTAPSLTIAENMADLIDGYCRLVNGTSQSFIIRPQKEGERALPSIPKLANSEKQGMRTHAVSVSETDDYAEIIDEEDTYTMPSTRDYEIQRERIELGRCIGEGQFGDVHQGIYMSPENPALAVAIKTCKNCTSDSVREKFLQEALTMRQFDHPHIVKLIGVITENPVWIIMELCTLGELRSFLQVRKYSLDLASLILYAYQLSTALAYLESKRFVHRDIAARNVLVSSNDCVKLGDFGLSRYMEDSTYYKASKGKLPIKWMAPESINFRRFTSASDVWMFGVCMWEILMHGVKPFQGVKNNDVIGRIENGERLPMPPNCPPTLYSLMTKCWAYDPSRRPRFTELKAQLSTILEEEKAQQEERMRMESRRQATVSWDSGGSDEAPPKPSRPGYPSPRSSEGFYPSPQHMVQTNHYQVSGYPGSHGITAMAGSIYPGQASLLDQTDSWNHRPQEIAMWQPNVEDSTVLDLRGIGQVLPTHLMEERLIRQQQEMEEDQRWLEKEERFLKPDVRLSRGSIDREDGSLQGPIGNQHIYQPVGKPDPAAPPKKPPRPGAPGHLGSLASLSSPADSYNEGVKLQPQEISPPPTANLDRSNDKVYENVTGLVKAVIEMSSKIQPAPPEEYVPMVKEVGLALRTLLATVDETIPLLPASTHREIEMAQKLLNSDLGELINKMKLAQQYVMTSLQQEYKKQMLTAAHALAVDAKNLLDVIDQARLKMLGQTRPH

As to `COc1cc(C(=O)NC2CC3(CCN(C)CC3)C2)ccc1Nc1ncc(C(F)(F)F)c(Oc2cccc3c2C(=O)N(C)C3)n1` [Compound 45], the IC50 at FAK recombinant protein is under 10 nM; in the assay on PC3 cells [1], over 2000 nM; in the assay on PC3 cells [2], under 5 nM.
As to `COc1cc(C(=O)NC2CCC3(CC2)CN(C)C3)ccc1Nc1ncc(C(F)(F)F)c(Oc2cccc3c2C(=O)N(C)C3)n1` [Compound 46], the IC50 on FAK recombinant protein was under 10 nM; with PC3 cells [1] it was over 2000 nM; in the assay with PC3 cells [2], 5 to 50 nM.
Regarding `[2H]C([2H])([2H])N1CCC2(CC1)CC(NC(=O)c1cc(OC)c(Nc3ncc(C(F)(F)F)c(Oc4cccc5c4C(=O)N(C)C5)n3)cc1F)C2` [Compound 47], the IC50 was under 10 nM at FAK recombinant protein, over 2000 nM with PC3 cells [1] and under 5 nM in the assay on PC3 cells [2].
In the case of `[2H]C([2H])([2H])N1CC2(CCC(NC(=O)c3cc(OC)c(Nc4ncc(C(F)(F)F)c(Oc5cccc6c5C(=O)N(C)C6)n4)cc3F)CC2)C1` [Compound 48], the IC50 on FAK recombinant protein was under 10 nM; in the assay with PC3 cells [1] it was over 2000 nM; in the assay on PC3 cells [2], 5 to 50 nM.
Turning to `COc1cc(C(=O)NC2CC3(CCN(C)CC3)C2)c(F)cc1Nc1ncc(C(F)(F)F)c(Cc2cccc3c2C(=O)N(C)C3)n1` [Compound 49, 2-fluoro-5-methoxy-4-((4-((2-methyl-3-oxoisoindolin-4-yl)methyl)-5-(trifluoromethyl)pyrimidin-2-yl)amino)-N-(7-methyl-7-azaspiro[3.5]nonan-2-yl)benzamide], the IC50 on FAK recombinant protein was under 10 nM; with PC3 cells [1], over 2000 nM; in the assay on PC3 cells [2], under 5 nM.
Turning to `COc1cc(C(=O)NC2CCC3(CC2)CN(C)C3)c(F)cc1Nc1ncc(C(F)(F)F)c(Cc2cccc3c2C(=O)N(C)C3)n1` [Compound 50], the IC50 at FAK recombinant protein was under 10 nM; in the assay on PC3 cells [1], over 2000 nM; with PC3 cells [2], 5 to 50 nM.
As to `COc1cc(C(=O)NC2CCC3(CC2)CCN(C)C3)c(F)cc1Nc1ncc(C(F)(F)F)c(Cc2cccc3c2C(=O)N(C)C3)n1` (stereo not drawn) [Compound 53], the IC50 was under 10 nM on FAK recombinant protein, over 2000 nM in the assay on PC3 cells [1] and 5 to 50 nM in the assay with PC3 cells [2].
On to `COc1cc(C(=O)NC2CCC3(CC2)CCN(C)CC3)c(F)cc1Nc1ncc(C(F)(F)F)c(Cc2cccc3c2C(=O)N(C)C3)n1` [Compound 54], for which the IC50 at FAK recombinant protein was 10 to 50 nM; with PC3 cells [1], over 2000 nM; in the assay with PC3 cells [2] it was 5 to 50 nM.
With `COc1cc(C(=O)NC2CC3(CCN(C)CC3)C2)c(Cl)cc1Nc1ncc(C(F)(F)F)c(Cc2cccc3c2C(=O)N(C)C3)n1` [Compound 55], the IC50 on FAK recombinant protein was under 10 nM; in the assay on PC3 cells [1], over 2000 nM; in the assay with PC3 cells [2] it was under 5 nM.
In the case of `COc1cc(C(=O)NC2CCC3(CC2)CN(C)C3)c(Cl)cc1Nc1ncc(C(F)(F)F)c(Cc2cccc3c2C(=O)N(C)C3)n1` [Compound 56], the figures for the IC50 at FAK recombinant protein, in the assay on PC3 cells [1] and in the assay on PC3 cells [2] were under 10 nM, over 2000 nM and 5 to 50 nM, respectively.
On to `COc1cc(C(=O)NC2CC3(CCN(C)CC3)C2)ccc1Nc1ncc(C(F)(F)F)c(Cc2cccc3c2C(=O)N(C)C3)n1` [Compound 57], for which the IC50 is under 10 nM on FAK recombinant protein, over 2000 nM with PC3 cells [1] and under 5 nM in the assay with PC3 cells [2].
Regarding `COc1cc(C(=O)NC2CCC3(CC2)CN(C)C3)ccc1Nc1ncc(C(F)(F)F)c(Cc2cccc3c2C(=O)N(C)C3)n1` [Compound 58], the IC50 is under 10 nM at FAK recombinant protein, over 2000 nM in the assay on PC3 cells [1] and 5 to 50 nM in the assay with PC3 cells [2].
In the same order, the values of `COc1cc(N2CCC3(CCN(C)CC3)C2=O)c(F)cc1Nc1ncc(C(F)(F)F)c(Oc2cccc3c2C(=O)N(C)C3)n1` [Compound 61, 2-(2-fluoro-5-methoxy-4-((4-((2-methyl-3-oxoisoindol-4-yl)oxy)-5-(trifluoromethyl)pyrimidin-2-yl)amino)phenyl)-8-methyl-2,8-diazaspiro[4.5]decan-1-one] are under 10 nM, over 2000 nM and 5 to 50 nM.
In the same order, the values of `COc1cc(N2CC3(CCN(C)CC3)OC2=O)c(F)cc1Nc1ncc(C(F)(F)F)c(Oc2cccc3c2C(=O)N(C)C3)n1` [Compound 63] are 10 to 50 nM, over 2000 nM and 5 to 50 nM.
In the case of `COc1cc(N2CC3(CCC2=O)CCN(C)CC3)c(F)cc1Nc1ncc(C(F)(F)F)c(Oc2cccc3c2C(=O)N(C)C3)n1` [Compound 65], the IC50 was over 50 nM on FAK recombinant protein, over 2000 nM with PC3 cells [1] and over 50 nM in the assay with PC3 cells [2].
As for `COc1cc(C2=NOC3(CCN(C)CC3)C2)ccc1Nc1ncc(C(F)(F)F)c(Oc2cccc3c2C(=O)N(C)C3)n1` [Compound 68], the IC50 at FAK recombinant protein was 10 to 50 nM; in the assay on PC3 cells [1], over 2000 nM; in the assay with PC3 cells [2], 5 to 50 nM.
Regarding `COc1cc(C(=O)NC2CC3(CCN(C)CC3)C2)c(F)cc1Nc1ncc(C(F)(F)F)c(Oc2cccc3c2C(=O)N(C)C3C)n1` (stereo not drawn) [Compound 70, 4-((4-((1,2-dimethyl-3-oxoisoindol-4-yl)oxy)-5-(trifluoromethyl)pyrimidin-2-yl)amino)-2-fluoro-5-methoxy-N-(7-methyl-7-azaspiro[3.5]nonan-2-yl)benzamide], the IC50 on FAK recombinant protein was under 10 nM; in the assay on PC3 cells [1], over 2000 nM; in the assay with PC3 cells [2], under 5 nM.
As for `COc1cc(C(=O)NC2CC3(CCN(C)CC3)C2)ccc1Nc1ncc(C(F)(F)F)c(Oc2cccc3c2C(=O)N(C)C3C)n1` (stereo not drawn) [Compound 72], the IC50 was under 10 nM at FAK recombinant protein, over 2000 nM in the assay on PC3 cells [1] and under 5 nM in the assay with PC3 cells [2].
`COc1cc(C(=O)NC2CCC3(CC2)CN(C)C3)ccc1Nc1ncc(C(F)(F)F)c(Oc2cccc3c2C(=O)N(C)C3C)n1` (stereo not drawn) [Compound 73]: the IC50 at FAK recombinant protein is under 10 nM; in the assay with PC3 cells [1], over 2000 nM; in the assay on PC3 cells [2], 5 to 50 nM.
On the same counts, the results for `COc1cc(C(=O)NC2CC3(CCN(C)CC3)C2)c(F)cc1Nc1ncc(C(F)(F)F)c(Cc2cccc3c2C(=O)N(C)C3C)n1` (stereo not drawn) [Compound 74, 4-((4-((1,2-dimethyl-3-oxoisoindol-4-yl)methyl)-5-(trifluoromethyl)pyrimidin-2-yl)amino)-2-fluoro-5-methoxy-N-(7-methyl-7-azaspiro[3.5]nonan-2-yl)benzamide] are under 10 nM, over 2000 nM and 5 to 50 nM.
On the same counts, the results for `COc1cc(C(=O)NC2CC3(CCN(C)CC3)C2)ccc1Nc1ncc(C(F)(F)F)c(Cc2cccc3c2C(=O)N(C)C3C)n1` (stereo not drawn) [Compound 75] are under 10 nM, over 2000 nM and 5 to 50 nM.
In the same order, the values of `COc1cc(C(=O)NC2CC3(CCN(C)CC3)C2)c(F)cc1Nc1ncc(C(F)(F)F)c(Oc2cccc3c2C(=O)N(C)C3(C)C)n1` [Compound 76] are under 10 nM, over 2000 nM and 5 to 50 nM.
Regarding `COc1cc(C(=O)NC2CCC3(CC2)CN(C)C3)c(F)cc1Nc1ncc(C(F)(F)F)c(Oc2cccc3c2C(=O)N(C)C3(C)C)n1` [Compound 77], the IC50 at FAK recombinant protein is under 10 nM; in the assay with PC3 cells [1] it was over 2000 nM; in the assay with PC3 cells [2] it was 5 to 50 nM.
In the same order, the values of `COc1cc(C(=O)NC2CC3(CCN(C)CC3)C2)ccc1Nc1ncc(C(F)(F)F)c(Oc2cccc3c2C(=O)N(C)C3(C)C)n1` [Compound 78] are under 10 nM, over 2000 nM and 5 to 50 nM.
For the molecule `COc1cc(C(=O)NC2CC3(CCN(C)CC3)C2)c(F)cc1Nc1ncc(C(F)(F)F)c(Oc2cccc3c2C(=O)N(OC)C3)n1` [Compound 79], the IC50 was under 10 nM on FAK recombinant protein, over 2000 nM in the assay with PC3 cells [1] and under 5 nM with PC3 cells [2].
On the same counts, the results for `COc1cc(C(=O)NC2CC3(CCN(C)CC3)C2)ccc1Nc1ncc(C(F)(F)F)c(Oc2cccc3c2C(=O)N(OC)C3)n1` [Compound 81] are under 10 nM, over 2000 nM and under 5 nM.
`COc1cc(C(=O)NC2CC3(CCN(C)CC3)C2)c(F)cc1Nc1ncc(C(F)(F)F)c(Oc2cccc3c2C(=O)CC3)n1` [Compound 82]: the IC50 was under 10 nM on FAK recombinant protein, over 2000 nM in the assay with PC3 cells [1] and 5 to 50 nM with PC3 cells [2].
For the molecule `COc1cc(C(=O)NC2CC3(CCN(C)CC3)C2)ccc1Nc1ncc(C(F)(F)F)c(Oc2cccc3c2C(=O)CC3)n1` [Compound 83], the IC50 is under 10 nM at FAK recombinant protein, over 2000 nM in the assay with PC3 cells [1] and 5 to 50 nM with PC3 cells [2].
As to `COc1cc(C(=O)NC2CC3(CCN(C)CC3)C2)c(F)cc1Nc1ncc(C(F)(F)F)c(Cc2cccc3c2C(=O)CC3)n1` [Compound 84], the IC50 at FAK recombinant protein was under 10 nM; with PC3 cells [1] it was over 2000 nM; in the assay on PC3 cells [2], 5 to 50 nM.
For the molecule `CCc1cc(C(=O)NC2CC3(CCN(C)CC3)C2)c(F)cc1Nc1ncc(C(F)(F)F)c(Oc2cccc3c2C(=O)N(C)C3)n1` [Compound 85, 2-fluoro-4-((4-((2-methyl-3-oxoisoindol-4-yl)oxy)-5-(trifluoromethyl)pyrimidin-2-yl)amino)-N-(7-methyl-7-azaspiro[3.5]nonan-2-yl)-5-ethylbenzamide], the IC50 is 10 to 50 nM at FAK recombinant protein, over 2000 nM in the assay on PC3 cells [1] and 5 to 50 nM in the assay on PC3 cells [2].
Consider `COc1cc(C(=O)NC2CC3(CCN(C)CC3)C2)c(-c2cnn(C)c2)cc1Nc1ncc(C(F)(F)F)c(Oc2cccc3c2C(=O)N(C)C3)n1` [Compound 88], for which the IC50 on FAK recombinant protein was 10 to 50 nM; with PC3 cells [1], over 2000 nM; with PC3 cells [2], 5 to 50 nM.
